Biological target: T1, Solute carrier family 15 member 1 (Homo sapiens, UniProt P46059)
T1 sequence (P46059 whole entry): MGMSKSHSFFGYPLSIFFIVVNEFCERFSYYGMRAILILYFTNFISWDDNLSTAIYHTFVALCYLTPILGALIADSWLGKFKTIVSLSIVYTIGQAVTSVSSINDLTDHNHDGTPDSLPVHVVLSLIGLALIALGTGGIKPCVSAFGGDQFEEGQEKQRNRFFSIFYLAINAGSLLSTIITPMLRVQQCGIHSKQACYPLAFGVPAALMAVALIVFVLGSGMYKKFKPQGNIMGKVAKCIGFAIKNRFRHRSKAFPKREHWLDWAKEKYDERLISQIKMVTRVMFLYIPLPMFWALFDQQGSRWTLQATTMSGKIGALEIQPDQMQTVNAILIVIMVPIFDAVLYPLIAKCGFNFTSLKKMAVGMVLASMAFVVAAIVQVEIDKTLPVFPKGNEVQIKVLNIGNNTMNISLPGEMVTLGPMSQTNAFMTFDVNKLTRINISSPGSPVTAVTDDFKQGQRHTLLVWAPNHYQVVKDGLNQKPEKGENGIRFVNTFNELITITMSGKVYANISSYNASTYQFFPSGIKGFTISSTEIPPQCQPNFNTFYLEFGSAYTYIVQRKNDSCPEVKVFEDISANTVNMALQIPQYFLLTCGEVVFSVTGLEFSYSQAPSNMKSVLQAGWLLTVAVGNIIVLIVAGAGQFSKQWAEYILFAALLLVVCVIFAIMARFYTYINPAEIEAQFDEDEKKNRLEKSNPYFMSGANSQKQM
Test: TP_TRANSPORTER: inhibition of Gly-Sar uptake, 96% trans conformation in Caco-2 cells
Assay type: functional, cell-based

Ki: 300 µM
SMILES: CC(N)C(=S)N1CCCC1C(=O)O (stereo unspecified)

Source: ChEMBL document CHEMBL2074527, “Evidence for the absolute conformational specificity of the intestinal H+/peptide symporter, PEPT1” (J Biol Chem, 1998)
